Experimental data published in ChEMBL document CHEMBL1144828, “Isoxazolone based inhibitors of p38 MAP kinases” (J Med Chem, 2008).

What follows are compounds tested against T1, Mitogen-activated protein kinase 14 (Homo sapiens, UniProt Q16539) (assay: Inhibition of p38-alpha MAPK).
T1 sequence (Q16539 whole entry): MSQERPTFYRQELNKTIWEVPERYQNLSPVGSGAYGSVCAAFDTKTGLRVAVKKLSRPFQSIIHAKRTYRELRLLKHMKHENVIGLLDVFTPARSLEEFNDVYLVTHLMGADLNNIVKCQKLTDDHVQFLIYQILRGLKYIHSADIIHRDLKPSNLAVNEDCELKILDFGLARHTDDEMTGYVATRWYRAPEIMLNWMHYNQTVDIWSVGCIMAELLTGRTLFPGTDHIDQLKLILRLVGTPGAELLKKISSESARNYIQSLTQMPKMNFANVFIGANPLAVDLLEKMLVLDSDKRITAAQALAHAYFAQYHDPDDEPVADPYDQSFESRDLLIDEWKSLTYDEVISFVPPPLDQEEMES

Compound	IC50 [nM]
CCNC(=O)n1oc(=O)c(-c2ccc(F)cc2)c1-c1ccncc1	230
O=c1on(C(=S)Nc2ccc(F)cc2)c(-c2ccncc2)c1-c1ccc(F)cc1	350
COCn1oc(=O)c(-c2ccc(F)cc2)c1-c1ccncc1	2130
O=c1on(CC2CC2)c(-c2ccncc2)c1-c1ccc(F)cc1	2130
COCCOCn1oc(=O)c(-c2ccc(F)cc2)c1-c1ccncc1	3830
O=c1on(CCCO)c(-c2ccncc2)c1-c1ccc(F)cc1	1150
O=c1on(CCO)c(-c2ccncc2)c1-c1ccc(F)cc1	2500
CCOC(=O)CCNC(=O)n1oc(=O)c(-c2ccc(F)cc2)c1-c1ccncc1	970
O=c1on(CC2CO2)c(-c2ccncc2)c1-c1ccc(F)cc1 (stereo unspecified)	3830
CSCCn1oc(=O)c(-c2ccc(F)cc2)c1-c1ccncc1	3900
Oc1onc(-c2ccncc2)c1-c1ccc(F)cc1	390
O=c1o[nH]c(-c2ccc(F)cc2)c1-c1ccncc1	1400
CSc1nc(-c2ccc(F)cc2)c(-c2ccncc2)n1CCCO	813
CC(=O)n1oc(=O)c(-c2ccc(F)cc2)c1-c1ccncc1	120
Cc1ccc(S(=O)(=O)n2oc(=O)c(-c3ccc(F)cc3)c2-c2ccncc2)cc1	480
CCn1oc(=O)c(-c2ccc(F)cc2)c1-c1ccncc1	1630
O=C(Nc1ccc(F)cc1)n1oc(=O)c(-c2ccc(F)cc2)c1-c1ccncc1	320
CCOCCn1oc(=O)c(-c2ccc(F)cc2)c1-c1ccncc1	1320

The compounds below were run against T1, Mitogen-activated protein kinase 14 (assay: Inhibition of p38-alpha MAPK at 10 uM).

Compound	inhibition [%]
CCOc1onc(-c2ccc(F)cc2)c1-c1ccncc1	13.6
OCCCOc1onc(-c2ccc(F)cc2)c1-c1ccncc1	9.8
CC(C)n1oc(=O)c(-c2ccc(F)cc2)c1-c1ccncc1	42.2
Fc1ccc(-c2noc(OCC3CO3)c2-c2ccncc2)cc1 (stereo unspecified)	23.7
CC(c1ccccc1)n1oc(=O)c(-c2ccc(F)cc2)c1-c1ccncc1 (stereo unspecified)	27.5
CC(C)Oc1onc(-c2ccc(F)cc2)c1-c1ccncc1	11.9
COCCOc1onc(-c2ccc(F)cc2)c1-c1ccncc1	14.4
OCCOc1onc(-c2ccc(F)cc2)c1-c1ccncc1	14.7
COCOc1onc(-c2ccc(F)cc2)c1-c1ccncc1	27.8
O=c1on(CCN2CCCCC2)c(-c2ccncc2)c1-c1ccc(F)cc1	38.3
O=C1c2ccccc2C(=O)N1CCn1oc(=O)c(-c2ccc(F)cc2)c1-c1ccncc1	41.9
Fc1ccc(-c2noc(OCC3CC3)c2-c2ccncc2)cc1	26.4
COc1onc(-c2ccc(F)cc2)c1-c1ccncc1	26.5
